Our source for the IC50 values is US20240083908A1, “TETRAHYDROTHIENOPYRIMIDINESULFONAMIDE COMPOUNDS” (priority 2020, published 2024).

The term IC50 denotes the concentration needed to halve the response being measured.

The test concerns the target human recombinant PARG (Homo sapiens (Human), UniProt Q86W56). The test is described as follows: PARG Activity Assay. Type of test: biochemical. To be noted: recombinant human PARG 0.0185 nM, 1 hour pre-incubation, poly (ADP-ribose) substrate-coated plate, Abs 450. As for the experimental part:
In order to evaluate the PARG inhibitory activity of the present compound, the inhibitory activity of each test compound against human recombinant PARG was measured. The specific procedure is described below.
Test compound was dissolved in dimethyl sulfoxide and prepared a 10 mM stock solution.
PARG Activity Assay was performed in Streptavidin-coated 96-well plates. […] The substrate solution was added to the 96-well plate at the volume of 200 micro liter per well and incubated for 3 hours at room temperature. After the incubation, the substrate solution was discarded and assay plate was washed 4 times with 220 micro liter of PBS containing 0.1% Tween20 (PBST). […] The diluted enzyme solution was pre-incubated with compounds for 1 hour at room temperature in a 96-well plate and transferred 100 micro liter per well to the poly (ADP-ribose) substrate-coated assay plate. The plate was incubated for 1 hour at 25° C. and then washed 4 times with 220 micro liters of PBST. For the detection of non-digested poly (ADP-ribose) polymer on the plate, mouse anti-poly (ADP-ribose) antibody diluted with 0.2% BSA containing PBS was added 100 micro liters per well and incubated 1 hour at room temperature. Plate was washed 4 times with TBST and 100 micro liter of HRP-labeled anti-mouse Ig antibody was added to the wells. Plate was incubated for 30 minutes at room temperature and then washed 4 times with PBST. For the detection 100 micro liters of TMB substrate solution was added to the wells. After sufficient color development, reaction was stopped by addition of 50 micro liter of 0.2 M […]. The 450 nm absorbance (Abs 450) of each well was read with a micro plate reader. The assay was performed by duplicated and average of 2 independent assays were used for the determination of PARG inhibitor y activity.
Wells treated with dimethyl sulfoxide instead of test compound solution were designated as a Negative Control of assay
Wells treated with 0.2% BSA containing PBS instead of recombinant human PARG protein and with dimethyl sulfoxide instead of test compound solution were designated as a Positive Control of assay.
The PARG Inhibitory Activity (%) was determined by the following formulation.
PARG Inhibitory Activity (%)=[(AbsX−AbsA)/(AbsB−AbsA)]×100
(wherein, • AbsA is absorbance (Abs 450) of Negative Control wells • AbsB is absorbance (Abs 450) of Positive Control wells • AbsX is absorbance (Abs 450) of wells treated with test compound.)
In Table, Ex indicates an Example number shown below.

Sequence of human recombinant PARG (Q86W56 whole entry): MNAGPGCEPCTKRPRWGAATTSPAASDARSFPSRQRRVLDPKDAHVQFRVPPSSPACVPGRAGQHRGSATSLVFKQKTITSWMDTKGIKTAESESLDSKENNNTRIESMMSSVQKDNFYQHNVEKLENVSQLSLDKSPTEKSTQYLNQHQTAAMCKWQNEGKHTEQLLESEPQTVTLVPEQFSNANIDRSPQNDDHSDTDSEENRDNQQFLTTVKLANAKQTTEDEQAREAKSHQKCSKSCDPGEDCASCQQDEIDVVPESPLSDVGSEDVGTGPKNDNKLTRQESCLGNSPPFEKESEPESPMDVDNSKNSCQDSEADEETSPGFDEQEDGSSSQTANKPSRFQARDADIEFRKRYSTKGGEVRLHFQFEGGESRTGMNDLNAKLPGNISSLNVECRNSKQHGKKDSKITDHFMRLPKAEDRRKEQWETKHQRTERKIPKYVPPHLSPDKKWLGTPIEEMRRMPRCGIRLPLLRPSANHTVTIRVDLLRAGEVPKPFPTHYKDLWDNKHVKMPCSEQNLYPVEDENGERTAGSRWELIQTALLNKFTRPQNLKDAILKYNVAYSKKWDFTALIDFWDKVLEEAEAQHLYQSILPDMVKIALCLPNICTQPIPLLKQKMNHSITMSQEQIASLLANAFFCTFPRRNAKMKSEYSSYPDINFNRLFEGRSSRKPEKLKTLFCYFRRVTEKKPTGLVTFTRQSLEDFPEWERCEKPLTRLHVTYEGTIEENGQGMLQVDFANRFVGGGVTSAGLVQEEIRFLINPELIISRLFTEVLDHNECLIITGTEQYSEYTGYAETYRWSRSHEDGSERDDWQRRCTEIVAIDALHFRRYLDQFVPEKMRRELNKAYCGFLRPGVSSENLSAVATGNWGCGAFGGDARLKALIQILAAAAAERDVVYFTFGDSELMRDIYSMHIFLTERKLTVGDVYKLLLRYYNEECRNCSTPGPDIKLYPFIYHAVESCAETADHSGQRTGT

On to `Cc1cc(Cn2c(=O)n(Cc3cnc(C)s3)c(=O)c3cc(S(=O)(=O)NC4(C)CC4)sc32)n(C)n1` [Ex 3], for which the IC50 was 29 nM. Then `Cc1ncc(Cn2c(=O)c3cc(S(=O)(=O)NC4(C)CC4)sc3n(Cc3ccc4[nH]ncc4c3)c2=O)s1` [Ex 4], with 11 nM. Consider `Cc1ncc(Cn2c(=O)c3cc(S(=O)(=O)NC4(C)CC4)sc3n(Cc3ccc4cn[nH]c4c3)c2=O)s1` [Ex 5], for which the IC50 worked out at 12 nM. `Cc1ncc(Cn2c(=O)c3cc(S(=O)(=O)NC4(C)CC4)sc3n(CCOC3CNC3)c2=O)s1` [Ex 7]: the IC50 worked out at 210 nM. On to `Cc1ncc(Cn2c(=O)c3cc(S(=O)(=O)NC4(C)CC4)sc3n(CCCN)c2=O)s1` [Ex 9], for which the IC50 amounted to 1070 nM. As to `Cc1ncc(Cn2c(=O)c3cc(S(=O)(=O)NC4(C)CC4)sc3n(Cc3cnc4[nH]ccc4c3)c2=O)s1` [Ex 10], the concentration for half-maximal inhibition (IC50) came to 16 nM. For `Cc1ncc(Cn2c(=O)c3cc(S(=O)(=O)NC4(C)CC4)sc3n(Cc3ccc4cc[nH]c4c3)c2=O)s1` [Ex 11] the value was 160 nM; for `Cc1ncc(Cn2c(=O)c3cc(S(=O)(=O)NC4(C)CC4)sc3n(Cc3ccc4c(c3)OCC4)c2=O)s1` [Ex 13], 41 nM.

Regarding `Cc1ncc(Cn2c(=O)c3cc(S(=O)(=O)NC4(C)CC4)sc3n(CC3CCOCC3)c2=O)s1` [Ex 14], the concentration for half-maximal inhibition (IC50) turned out to be 320 nM.

Take `Cc1ncc(Cn2c(=O)c3cc(S(=O)(=O)NC4(C)CC4)sc3n(CC3CCCO3)c2=O)s1` (stereo not drawn) [Ex 15]: the IC50 turned out to be 600 nM. Then `Cc1ncc(Cn2c(=O)c3cc(S(=O)(=O)NC4(C)CC4)sc3n(CC3CCOC3)c2=O)s1` (stereo not drawn) [Ex 16], with 970 nM. As for `Cc1ncc(Cn2c(=O)c3cc(S(=O)(=O)NC4(C)CC4)sc3n(CC3CCCOC3)c2=O)s1` (stereo not drawn) [Ex 17], the IC50 turned out to be 470 nM. For `Cc1ncc(Cn2c(=O)c3cc(S(=O)(=O)NC4(C)CC4)sc3n(Cc3nc4ccccc4[nH]3)c2=O)s1` [Ex 18] the value was 580 nM; for `Cc1ncc(Cn2c(=O)c3cc(S(=O)(=O)NC4(C)CC4)sc3n(Cc3cc4n(n3)CCOC4)c2=O)s1` [Ex 19], 130 nM. In the case of `Cc1ncc(Cn2c(=O)c3cc(S(=O)(=O)NC4(C)CC4)sc3n(Cc3nc4c(o3)CCCC4)c2=O)s1` [Ex 20], the 50% inhibitory concentration (IC50) worked out at 110 nM. Then `CCNS(=O)(=O)c1cc2c(=O)n(Cc3cnc(C)s3)c(=O)n(CC3CC3)c2s1` [Ex 21], with 75500 nM; and `Cc1ncc(Cn2c(=O)c3cc(S(=O)(=O)NC(C)C)sc3n(CC3CC3)c2=O)s1` [Ex 22], with 93100 nM. For `CNS(=O)(=O)c1cc2c(=O)n(Cc3cnc(C)s3)c(=O)n(CC3CC3)c2s1` [Ex 23] the value was 97000 nM. For `Cc1ncc(Cn2c(=O)c3cc(S(=O)(=O)NC4CC4)sc3n(CC3CC3)c2=O)s1` [Ex 24] the value was 2220 nM; for `Cn1cc(Cn2c(=O)c3cc(S(=O)(=O)NC4(C)CC4)sc3n(CC3CC3)c2=O)cn1` [Ex 26], 370 nM.

Regarding `CC#CCn1c(=O)n(Cc2cnn(C)c2)c(=O)c2cc(S(=O)(=O)NC3(C)CC3)sc21` [Ex 27], the IC50 was 250 nM. Then `Cc1cc(Cn2c(=O)n(Cc3cnn(C)c3)c(=O)c3cc(S(=O)(=O)NC4(C)CC4)sc32)n(C)n1` [Ex 30], with 37 nM; and `Cc1cc(Cn2c(=O)n(Cc3cnn(C)c3)c(=O)c3cc(S(=O)(=O)NC4(C)CC4)sc32)[nH]n1` [Ex 31], with 29 nM; and `Cc1nn(C)cc1Cn1c(=O)n(Cc2cnn(C)c2)c(=O)c2cc(S(=O)(=O)NC3(C)CC3)sc21` [Ex 32], with 6990 nM. With `Cn1cc(Cn2c(=O)c3cc(S(=O)(=O)NC4(C)CC4)sc3n(Cc3cc4n(n3)CCOC4)c2=O)cn1` [Ex 33], the IC50 stood at 35 nM. `Cn1cc(Cn2c(=O)c3cc(S(=O)(=O)NC4(C)CC4)sc3n(Cc3cncnc3)c2=O)cn1` [Ex 34]: the half-inhibitory concentration (IC50) is 300 nM. Consider `Cn1cc(Cn2c(=O)c3cc(S(=O)(=O)NC4(C)CC4)sc3n(Cc3cnc(C#N)s3)c2=O)cn1` [Ex 35], for which the 50% inhibitory concentration (IC50) worked out at 35 nM. For `Cn1cc(Cn2c(=O)c3cc(S(=O)(=O)NC4(C)CC4)sc3n(Cc3cnc4[nH]ccc4c3)c2=O)cn1` [Ex 37] the value was 9 nM; for `Cn1cc(Cn2c(=O)c3cc(S(=O)(=O)NC4(C)CC4)sc3n(Cc3ccc4[nH]ncc4c3)c2=O)cn1` [Ex 38], 4.1 nM; for `Cn1cc(Cn2c(=O)c3cc(S(=O)(=O)NC4(C)CC4)sc3n(Cc3ccc4[nH]c(=O)oc4c3)c2=O)cn1` [Ex 39], 21 nM. In the case of `Cn1cc(Cn2c(=O)c3cc(S(=O)(=O)NC4(C)CC4)sc3n(Cc3cc4c(cn3)COC4)c2=O)cn1` [Ex 41], the half-maximal inhibitory concentration (IC50) was found to be 97 nM.

With `COc1cncc(Cn2c(=O)n(Cc3cnn(C)c3)c(=O)c3cc(S(=O)(=O)NC4(C)CC4)sc32)c1` [Ex 42], the 50% inhibitory concentration (IC50) is 40 nM. As for `COc1cc(Cn2c(=O)n(Cc3cnn(C)c3)c(=O)c3cc(S(=O)(=O)NC4(C)CC4)sc32)ccn1` [Ex 43], the IC50 amounted to 29 nM. Then `COc1ccc(Cn2c(=O)n(Cc3cnn(C)c3)c(=O)c3cc(S(=O)(=O)NC4(C)CC4)sc32)cn1` [Ex 44], with 48 nM. Then `CN1Cc2cc(Cn3c(=O)n(Cc4cnn(C)c4)c(=O)c4cc(S(=O)(=O)NC5(C)CC5)sc43)ccc2C1=O` [Ex 45], with 13 nM. In the case of `Cn1cc(Cn2c(=O)c3cc(S(=O)(=O)NC4(C)CC4)sc3n(Cc3ccc(F)cc3)c2=O)cn1` [Ex 46], the half-maximal inhibitory concentration (IC50) was determined as 9.2 nM. For `Cn1cc(Cn2c(=O)c3cc(S(=O)(=O)NC4(C)CC4)sc3n(Cc3ccc(Cl)c(F)c3)c2=O)cn1` [Ex 47] the value was 130 nM; for `Cn1cc(Cn2c(=O)c3cc(S(=O)(=O)NC4(C)CC4)sc3n(Cc3ccc(F)c(Cl)c3)c2=O)cn1` [Ex 48], 120 nM. For the compound `Cn1cc(Cn2c(=O)c3cc(S(=O)(=O)NC4(C)CC4)sc3n(Cc3ccc(C4CC4)cc3)c2=O)cn1` [Ex 49], the IC50 is 95 nM. For `Cn1cc(Cn2c(=O)c3cc(S(=O)(=O)NC4(C)CC4)sc3n(Cc3ccc(OC(F)F)cc3)c2=O)cn1` [Ex 51] the value was 33 nM; for `Cn1cc(Cn2c(=O)c3cc(S(=O)(=O)NC4(C)CC4)sc3n(Cc3ccc(OC(F)(F)F)cc3)c2=O)cn1` [Ex 52], 100 nM; for `Cn1cc(Cn2c(=O)c3cc(S(=O)(=O)NC4(C)CC4)sc3n(Cc3ccc(C#N)cc3)c2=O)cn1` [Ex 53], 52 nM. As to `CNc1ncc(Cn2c(=O)n(Cc3cnn(C)c3)c(=O)c3cc(S(=O)(=O)NC4(C)CC4)sc32)cn1` [Ex 54], the IC50 was 49 nM. For `Cn1cc(Cn2c(=O)c3cc(S(=O)(=O)NC4(C)CC4)sc3n(Cc3cnn(CC(F)F)c3)c2=O)cn1` [Ex 56], the IC50 was found to be 36 nM. Then `COCc1ncc(Cn2c(=O)n(Cc3cnn(C)c3)c(=O)c3cc(S(=O)(=O)NC4(C)CC4)sc32)s1` [Ex 58], with 260 nM; and `Cn1cc(Cn2c(=O)c3cc(S(=O)(=O)NC4(C)CC4)sc3n(Cc3ccc4c(c3)CCO4)c2=O)cn1` [Ex 59], with 22 nM. In the case of `Cn1cc(Cn2c(=O)c3cc(S(=O)(=O)NC4(C)CC4)sc3n(Cc3ccc4c(c3)CNC4=O)c2=O)cn1` [Ex 60], the IC50 was determined as 24 nM. On to `Cn1cc(Cn2c(=O)c3cc(S(=O)(=O)NC4(C)CC4)sc3n(Cc3ccc4c(c3)C(=O)NC4)c2=O)cn1` [Ex 61], for which the IC50 was 11 nM.

On to `CN1Cc2ccc(Cn3c(=O)n(Cc4cnn(C)c4)c(=O)c4cc(S(=O)(=O)NC5(C)CC5)sc43)cc2C1=O` [Ex 62], for which the 50% inhibitory concentration (IC50) came out at 29 nM. For `Cn1cc(Cn2c(=O)c3cc(S(=O)(=O)NC4(C)CC4)sc3n(Cc3cnc4c(c3)OCCO4)c2=O)cn1` [Ex 65] the value was 68 nM; for `Cn1cc(Cn2c(=O)c3cc(S(=O)(=O)NC4(C)CC4)sc3n(Cc3ccc4c(c3)CNC4)c2=O)cn1` [Ex 66], 46 nM. For `CN1Cc2ccc(Cn3c(=O)n(Cc4cnn(C)c4)c(=O)c4cc(S(=O)(=O)NC5(C)CC5)sc43)cc2C1` [Ex 67] the value was 100 nM; for `Cn1cc(Cn2c(=O)c3cc(S(=O)(=O)NC4(C)CC4)sc3n(Cc3ccc(OC4CCC4)cc3)c2=O)cn1` [Ex 69], 280 nM; for `Cn1cc(Cn2c(=O)c3cc(S(=O)(=O)NC4(C)CC4)sc3n(Cc3ccc(F)c(C#N)c3)c2=O)cn1` [Ex 70], 60 nM. `CN(C)c1ccc(Cn2c(=O)n(Cc3cnn(C)c3)c(=O)c3cc(S(=O)(=O)NC4(C)CC4)sc32)cc1F` [Ex 71]: the IC50 was 120 nM. Then `CCN(C)c1ccc(Cn2c(=O)n(Cc3cnn(C)c3)c(=O)c3cc(S(=O)(=O)NC4(C)CC4)sc32)cc1F` [Ex 72], with 190 nM; and `CNc1ccc(Cn2c(=O)n(Cc3cnn(C)c3)c(=O)c3cc(S(=O)(=O)NC4(C)CC4)sc32)cc1F` [Ex 73], with 17 nM.
